This experiment has as its target T1, Ba/F3-TEL-FGFR3 cells (Homo sapiens, UniProt P22607).
T1 construct: fused on or other part: The N-terminal oligomerising part of TEL (ETV6) is fused before the intracellular kinase part of FGFR3; P41212 (Transcription factor ETV6)
Put plainly: FGFR3 cellular assay: proliferation of transformed Ba/F3-TEL-FGFR3 cells (AlamarBlue). The class given is cell-based. To be noted: 48 hours incubation, class symbols. The essentials:
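Ba/F3-TEL-FGFR3 cells (5000/well) in RPMI 1640 with 10% FBS, exposed to twelve-point 1:3 compound dilutions for 48 h. Proliferation read by AlamarBlue (10% final, 4 h at 37 °C), fluorescence Ex530/Em580; IC50 from linear regression of percent inhibition.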

SMILES strings stand for the structures.

T1 sequence (P22607 whole entry, change not shown, the tested form may be a part): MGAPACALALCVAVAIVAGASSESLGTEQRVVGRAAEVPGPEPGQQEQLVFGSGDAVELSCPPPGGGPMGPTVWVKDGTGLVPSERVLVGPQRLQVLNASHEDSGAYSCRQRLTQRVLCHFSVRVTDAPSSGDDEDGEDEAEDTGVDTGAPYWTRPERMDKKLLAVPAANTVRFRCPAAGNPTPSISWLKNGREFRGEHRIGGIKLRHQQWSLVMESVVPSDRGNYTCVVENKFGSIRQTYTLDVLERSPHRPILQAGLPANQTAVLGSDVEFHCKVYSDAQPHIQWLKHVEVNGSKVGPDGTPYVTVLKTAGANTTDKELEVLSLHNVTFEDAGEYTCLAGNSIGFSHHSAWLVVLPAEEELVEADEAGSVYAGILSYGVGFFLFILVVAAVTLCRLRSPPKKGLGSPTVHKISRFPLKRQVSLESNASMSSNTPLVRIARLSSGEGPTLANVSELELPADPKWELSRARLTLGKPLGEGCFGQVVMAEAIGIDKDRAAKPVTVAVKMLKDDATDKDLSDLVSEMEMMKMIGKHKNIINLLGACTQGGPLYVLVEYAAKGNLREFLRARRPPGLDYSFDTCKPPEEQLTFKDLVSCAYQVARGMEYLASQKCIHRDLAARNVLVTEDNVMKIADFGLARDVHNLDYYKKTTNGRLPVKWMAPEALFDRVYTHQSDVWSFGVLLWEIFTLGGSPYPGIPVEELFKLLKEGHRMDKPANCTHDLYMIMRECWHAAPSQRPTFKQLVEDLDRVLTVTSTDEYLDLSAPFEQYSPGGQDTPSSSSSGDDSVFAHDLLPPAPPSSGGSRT

The term GI50 denotes the concentration giving 50% growth inhibition. Lower therefore signals greater sensitivity of the cells. Take `CCN1CCN(Cc2ccc(Nc3cc(-c4cncnc4Nc4c(C)c(OC)cc(OC)c4Cl)ncn3)nc2)CC1` [Compound 53, N4′-(2-Chloro-3,5-dimethoxy-6-methyl-phenyl)-N6-[5-(4-ethyl-piperazin-1-ylmethyl)-pyridin-2-yl]-[4,5′]bipyrimidinyl-6,4′-diamine]: the GI50 was under 100 nM.

The compound `COc1cc(OC)c(Cl)c(Nc2ncncc2-c2cc(Nc3cc(CN4CCOCC4)ccn3)ncn2)c1C` [Compound 54, N4′-(2-Chloro-3,5-dimethoxy-6-methyl-phenyl)-N6-(4-morpholin-4-ylmethyl-pyridin-2-yl)-[4,5′]bipyrimidinyl-6,4′-diamine] showed a concentration for 50% growth inhibition (GI50) of under 100 nM. With `CCN1CCN(c2ccc(Nc3cc(-c4cncnc4Nc4c(Cl)c(OC)cc(C(=O)NC5CC5)c4Cl)ncn3)nc2)CC1` [Compound 55, 2,4-Dichloro-N-cyclopropyl-3-{6-[5-(4-ethyl-piperazin-1-yl)-pyridin-2-ylamino]-[4,5′]bipyrimidinyl-4′-ylamino}-5-methoxy-benzamide] the figure was under 100 nM; with `COc1cc(OC)c(Cl)c(Nc2ncncc2-c2cc(Nc3cc(CCN4CCOCC4)ccn3)ncn2)c1F` [Compound 56, N4′-(2-Chloro-6-fluoro-3,5-dimethoxy-phenyl)-N6-[4-(2-morpholin-4-yl-ethyl)-pyridin-2-yl]-[4,5′]bipyrimidinyl-6,4′-diamine], under 100 nM. With `COc1cc(C(=O)NC2CC2)c(Cl)c(Nc2ncncc2-c2cc(Nc3ccc(CN4CCOCC4)cn3)ncn2)c1Cl` [Compound 57, 2,4-Dichloro-N-cyclopropyl-5-methoxy-3-[6-(5-morpholin-4-ylmethyl-pyridin-2-ylamino)-[4,5′]bipyrimidinyl-4′-ylamino]-benzamide] the figure was under 100 nM; with `CCN1CCN(Cc2ccc(Nc3cc(-c4cncnc4Nc4c(Cl)c(OC)cc(C(=O)NC5CC5)c4Cl)ncn3)nc2)CC1` [Compound 58, 2,4-Dichloro-N-cyclopropyl-3-{6-[5-(4-ethyl-piperazin-1-ylmethyl)-pyridin-2-ylamino]-[4,5′]bipyrimidinyl-4′-ylamino}-5-methoxy-benzamide], under 100 nM; with `CCN1CCN(c2ccc(Nc3cc(-c4cncnc4Nc4c(F)c(OC)cc(OC)c4Cl)ncn3)cc2)CC1` [Compound 59, N4′-(2-Chloro-6-fluoro-3,5-di-methoxy-phenyl)-N6-[4-(4-ethyl-piperazin-1-yl)-phenyl]-[4,5′]bipyrimidinyl-6,4′-diamine], under 100 nM. For `COc1cc(OC)c(Cl)c(Nc2ncncc2-c2cc(Nc3cc(CN4CCCC4)ccn3)ncn2)c1F` [Compound 60, N4′-(2-Chloro-6-fluoro-3,5-dimethoxy-phenyl)-N6-(4-pyrrolidin-1-ylmethyl-pyridin-2-yl)-[4,5′]bipyrimidinyl-6,4′-diamine] the value was under 100 nM.

For `COc1cc(OC)c(Cl)c(Nc2ncncc2-c2cc(Nc3ccc(CN4CCN(C(C)=O)CC4)cn3)ncn2)c1F` [Compound 61, 1-(4-{6-[4′-(2-Chloro-6-fluoro-3,5-dimethoxy-phenylamino)-[4,5′]bipyrimidinyl-6-ylamino]-pyridin-3-ylmethyl}-piperazin-1-yl)-ethanone], the GI50 was under 100 nM.

The compound `CCN1CCN(c2ccc(Nc3cc(-c4cncnc4Nc4c(F)c(OC)cc(OC)c4F)ncn3)nc2)CC1` [Compound 62, N4′-(2,6-Difluoro-3,5-dimethoxy-phenyl)-N6-[5-(4-ethyl-piperazin-1-yl)-pyridin-2-yl]-[4,5′]bipyrimidinyl-6,4′-diamine] displayed a GI50 of under 100 nM. For `COc1cc(OC)c(F)c(Nc2ncncc2-c2cc(Nc3ccc(CN4CCOCC4)cn3)ncn2)c1F` [Compound 63, N4′-(2,6-Difluoro-3,5-dimethoxy-phenyl)-N6-(5-morpholin-4-ylmethyl-pyridin-2-yl)-[4,5′]bipyrimidinyl-6,4′-diamine] the value was under 100 nM; for `CCN1CCN(Cc2ccc(Nc3cc(-c4cncnc4Nc4c(F)c(OC)cc(OC)c4F)ncn3)nc2)CC1` [Compound 64, N4′-(2,6-Difluoro-3,5-dimethoxy-phenyl)-N6-[5-(4-ethyl-piperazin-1-ylmethyl)-pyridin-2-yl]-[4,5′]bipyrimidinyl-6,4′-diamine], under 100 nM; for `COc1cc(OC)c(F)c(Nc2ncncc2-c2cc(Nc3cc(CN4CCOCC4)ccn3)ncn2)c1F` [Compound 65, N4′-(2,6-Difluoro-3,5-dimethoxy-phenyl)-N6-(4-morpholin-4-ylmethyl-pyridin-2-yl)-[4,5′]bipyrimidinyl-6,4′-diamine], under 100 nM. For `COc1cc(OC)c(F)c(Nc2ncncc2-c2cc(Nc3ccc(CN4CCN(C(C)=O)CC4)cn3)ncn2)c1F` [Compound 66, 1-(4-{6-[4′-(2,6-Difluoro-3,5-dimethoxy-phenylamino)-[4,5′]bipyrimidinyl-6-ylamino]-pyridin-3-ylmethyl}-piperazin-1-yl)-ethanone] the value was under 100 nM; for `COc1cc(C(=O)NC2CC2)c(Cl)c(Nc2ncncc2-c2cc(Nc3ccc(CN4CCN(C(C)=O)CC4)cn3)ncn2)c1Cl` [Compound 67, 3-{6-[5-(4-Acetyl-piperazin-1-ylmethyl)-pyridin-2-ylamino]-[4,5′]bipyrimidinyl-4′-ylamino}-2,4-dichloro-N-cyclopropyl-5-methoxy-benzamide], under 100 nM; for `COc1cc(Nc2ncncc2-c2cc(Nc3ccc(CN4CCOCC4)cn3)ncn2)c(F)c(OC)c1` [Compound 68, N4′-(2-Fluoro-3,5-dimethoxy-phenyl)-N6-(5-morpholin-4-ylmethyl-pyridin-2-yl)-[4,5′]bipyrimidinyl-6,4′-diamine], under 100 nM. For `CCN1CCN(Cc2ccc(Nc3cc(-c4cncnc4Nc4cc(OC)cc(OC)c4F)ncn3)nc2)CC1` [Compound 69, N6-[5-(4-Ethyl-piperazin-1-ylmethyl)-pyridin-2-yl]-N4′-(2-fluoro-3,5-dimethoxy-phenyl)-[4,5′]bipyrimidinyl-6,4′-diamine] the value was under 100 nM. `COc1cc(Nc2ncncc2-c2cc(Nc3ccc(CN4CCN(CCO)CC4)cn3)ncn2)c(F)c(OC)c1` [Compound 70, 2-(4-{6-[4′-(2-Fluoro-3,5-dimethoxy-phenylamino)-[4,5′]bipyrimidinyl-6-ylamino]-pyridin-3-ylmethyl}-piperazin-1-yl)-ethanol] displayed a 50% growth inhibitory concentration (GI50) of under 100 nM. For `COc1cc(Nc2ncncc2-c2cc(Nc3cc(CN4CCOCC4)ccn3)ncn2)c(F)c(OC)c1` [Compound 71, N4′-(2-Fluoro-3,5-dimethoxy-phenyl)-N6-(4-morpholin-4-ylmethyl-pyridin-2-yl)-[4,5′]bipyrimidinyl-6,4′-diamine] the value was under 100 nM. With `CCN1CCN(c2ccc(Nc3cc(-c4cncnc4Nc4cc(OC)cc(OC)c4F)ncn3)nc2)CC1` [Compound 72, N6-[5-(4-Ethyl-piperazin-1-yl)-pyridin-2-yl]-N4′-(2-fluoro-3,5-dimethoxy-phenyl)-[4,5′]bipyrimidinyl-6,4′-diamine] the figure was under 100 nM; with `COc1cc(OC)c(Cl)c(Nc2ncncc2-c2cc(Nc3ccc(CN4CCN(CCO)CC4)cn3)ncn2)c1F` [Compound 73, 2-(4-{6-[4′-(2-Chloro-6-fluoro-3,5-dimethoxy-phenylamino)-[4,5′]bipyrimidinyl-6-ylamino]-pyridin-3-ylmethyl}-piperazin-1-yl)-ethanol], under 100 nM; with `COc1cc(OC)c(F)c(Nc2ncncc2-c2cc(Nc3ccc(CN4CCN(CCO)CC4)cn3)ncn2)c1F` [Compound 74, 2-(4-{6-[4′-(2,6-Difluoro-3,5-di-methoxy-phenylamino)-[4,5′]bipyrimidinyl-6-ylamino]-pyridin-3-ylmethyl}-piperazin-1-yl)-ethanol], under 100 nM.

In turn, `COc1cc(OC)c(Cl)c(Nc2ncncc2-c2cc(Nc3ccc(CN4CCN(CCO)CC4)cn3)ncn2)c1Cl` [Compound 75, 2-(4-{6-[4′-(2,6-Dichloro-3,5-dimethoxy-phenylamino)-[4,5′]bipyrimidinyl-6-yl-amino]-pyridin-3-ylmethyl}-piperazin-1-yl)-ethanol] returned a GI50 of under 100 nM.

Turning to `COc1cc(OC)c(Cl)c(Nc2ncncc2-c2cc(Nc3ccc(CN4CCN(CCO)CC4)cn3)ncn2)c1C` [Compound 76, 2-(4-{6-[4′-(2-Chloro-3,5-dimethoxy-6-methyl-phenylamino)-[4,5′]bipyrimidinyl-6-ylamino]-pyridin-3-ylmethyl}-piperazin-1-yl)-ethanol], the GI50 was under 100 nM. With `COc1cc(OC)c(Cl)c(Nc2ncncc2-c2cc(Nc3cccc(C(C)O)c3)ncn2)c1F` (centres unmarked) [Compound 77, 1-{3-[4′-(2-Chloro-6-fluoro-3,5-dimethoxy-phenylamino)-[4,5′]bipyrimidinyl-6-yl-amino]-phenyl}-ethanol] the figure was under 100 nM. With `COc1cc(OC)c(F)c(Nc2ncncc2-c2cc(Nc3cccc(C(C)O)c3)ncn2)c1F` (centres unmarked) [Compound 78, 1-{3-[4′-(2,6-Difluoro-3,5-dimethoxy-phenylamino)-[4,5′]bipyrimidinyl-6-ylamino]-phenyl}-ethanol] the figure was under 100 nM. With `COc1cc(OC)c(Cl)c(Nc2ncncc2-c2cc(Nc3ccc(C(C)O)cn3)ncn2)c1F` (centres unmarked) [Compound 79, 1-{6-[4′-(2-Chloro-6-fluoro-3,5-dimethoxy-phenylamino)-[4,5′]bipyrimidinyl-6-ylamino]-pyridin-3-yl}-ethanol] the figure was under 100 nM. On to `COc1cc(OC)c(F)c(Nc2ncncc2-c2cc(Nc3ccc(C(C)O)cn3)ncn2)c1F` (centres unmarked) [Compound 80, 1-{6-[4′-(2,6-Difluoro-3,5-dimethoxy-phenylamino)-[4,5′]bipyrimidinyl-6-ylamino]-pyridin-3-yl}-ethanol], for which the 50% growth inhibitory concentration (GI50) was under 100 nM.

As for `COc1cc(OC)c(Cl)c(Nc2ncncc2-c2cc(Nc3ccc(C(C)O)cn3)ncn2)c1C` (centres unmarked) [Compound 81, 1-{6-[4′-(2-Chloro-3,5-dimethoxy-6-methyl-phenylamino)-[4,5′]bipyrimidinyl-6-ylamino]-pyridin-3-yl}-ethanol], the GI50 was under 100 nM.

For the origin of these results see patent US8026243B2, “[4,5′]Bipyrimidinyl-6,4′-diamine derivatives as protein kinase inhibitors” (Novartis AG, priority 2006, dated 2011).
